Row | SMILES | melting point [°C]
1 | O=C(O)CCC[C@@H](O)[C@@H](CCc1ccccc1)S(=O)(=O)c1ccccc1 (relative stereo) | 100 to 102
2 | CC(C)(C)NC(=O)c1ncccc1CC(=O)C1CCC(C(=O)O)CC1 (stereo not drawn) | 160
3 | Clc1ccccc1Cn1ncnc1I | 98
4 | CSc1cc2c(cc1C(F)(F)F)N(C(=O)Nc1ccc(Oc3ccccc3)nc1)CC2 | 86 to 88
5 | COc1cc(OC)nc(Cc2nscc2C(=O)N(C)c2ccccc2)n1 | 92 to 93
6 | Cc1ccn(-c2ccc(C(=O)N3Cc4cccn4Cc4ccccc43)c(F)c2)n1 | 192 to 193
7 | C#CCN(CCC12CC3CC(CC(C3)C1)C2)C(=O)NCCCc1ccncc1 | 152 to 154
8 | CCN(CC)S(=O)(=O)c1ccc(C=CC(C)(O)C(F)(F)F)cc1 (stereo not drawn) | 112 to 117
9 | CC1(C#CC2(C(F)(F)F)C=NC(=O)Nc3ccc(Cl)cc32)CC1 (stereo not drawn) | 196 to 198
10 | COc1cc(N)c(Cl)cc1C(=O)NCC1CCN(CCCCCCOCc2ccccc2)CC1 | 91 to 95
11 | CCOC(=O)c1ccc(C=CCN2CCc3nc(N)sc3CC2)cc1 | 111 to 115
12 | COc1cc(CC(=O)N[C@@H](COC(=O)C(C)(C)C)Cc2ccccc2)ccc1OCCN=[N+]=[N-] | 77 to 80
13 | CC(C)(C)c1cc(NC(=O)Nc2ccc(OCCN3CCOCC3)c3ccccc23)[nH]n1 | 206 to 207
14 | COc1ccc(C(=O)Nc2ccccc2)cc1NC(=S)Nc1ccc(Cl)cc1 | 179 to 180
15 | CCOC(=O)C(C#N)=CNc1ccc([N+](=O)[O-])cc1 | 227 to 228
16 | CCOc1ccccc1-c1cc(OC)c(C(=O)N2Cc3cccn3Cc3ccccc32)cc1Cl | 213 to 215
17 | Nc1nc(N2CCOCC2)c2ncn(C3C=CC(CO)C3)c2n1 (stereo not drawn) | 165 to 167
18 | CCCCCCCC(c1cc(C)ccc1O)c1cc(C)ccc1O | 108 to 109
19 | COc1ccc2c(c1)c(C=O)c(C)n2C(=O)c1ccc(Cl)cc1 | 150 to 152
20 | CC[C@H]1CC[C@H](CCc2ccc(C(=O)CCC(=O)O)cc2)CC1 | 141 to 143
21 | CC1(C)CC(=C(c2ccc(O)cc2)c2ccc(CCCO)cc2)CC(C)(C)C1 | 160 to 161
22 | Brc1cc(-c2ccncc2)cnc1Br | 150 to 155
23 | CCCCC1(N(C)C)CCC(c2[nH]c3ccc(C(F)(F)F)cc3c2C)CC1 (stereo not drawn) | 141 to 146
24 | Nc1cc(Cl)c(Cl)c(Br)c1N | 128 to 129
25 | CCC1(CC)NC(=O)Oc2ccccc21 | 160 to 162
26 | COc1ccc2c(c1)c1c(n2C)CCCC1=O | 150 to 151

Row | SMILES | melting point [°C]
27 | Cc1ccsc1C(=O)Nc1ccc(-n2nc(C(F)(F)F)cc2C(F)(F)F)cc1 | 185 to 188
28 | OCc1snc(Cl)c1Cl | 94 to 95
29 | COc1ccc(COC(=O)c2cc(Br)nn2-c2ncccc2Cl)cc1 | 83
30 | CCC1(c2cccc(OCc3ccccc3)c2)COC(C)(C)O1 (stereo not drawn) | 51 to 53
31 | Cn1cc(C2=C(c3c(S(C)=O)n(C)c4ccccc34)C(=O)NC2=O)c2ccccc21 (stereo not drawn) | 300
32 | C=CCc1cc(C(=O)CC(=O)C(C)(C)C)cc(OC)c1O | 115 to 116
33 | COc1cc2c(c(OC)c1/C=C/c1ccc(COC(C)=O)cc1)C(C)(C)CCC2(C)C | 73 to 74
34 | COc1ccc(C(=O)c2ccc(OCc3ccccc3)cc2)c(O)c1 | 124 to 125
35 | COC(=O)c1[nH]c2cc(C)c(C)cc2c1-c1ccc(O)cc1 | 247 to 248
36 | Cc1sc2cc3ccccc3c(-c3ccc(O)c(C4CCCC4)c3)c2c1C | 156 to 158
37 | Cc1ncc(CNC(=O)c2sc(N3CCN(Cc4ccc(F)cc4)C3=O)nc2C)s1 | 213 to 215
38 | COc1ccc2sc(Nc3ccc(OCCN4CCCC4)cc3)nc2c1 | 167 to 168
39 | Cc1ccccc1C(=O)Nc1ccc(C(=O)N2Cc3ccccc3Cc3ccccc32)c(C)c1 | 112 to 114
40 | CCN1CCN(c2ccc(CC3=C(C)C(=O)c4ccccc4C3=O)cc2)CC1 | 81 to 82
41 | COc1ccc2c(C(C)=O)noc2c1 | 64 to 67
42 | Cc1cc(C#N)cc(C(=O)NCC2CC2)c1NC(=O)c1cc(C(F)(F)F)nn1-c1ncccc1Cl | 235 to 236
43 | OCC1OC(n2cnc3c(NCCCC(c4ccccc4)c4ccccc4)ncnc32)C(O)C1O (stereo not drawn) | 102 to 108
44 | c1ccn(NC2=NCCN2)c1 | 183 to 184
45 | O=C1NC(=O)C(=Cc2ccc(OCC3CN(c4ccccn4)CCO3)cc2)S1 (stereo not drawn) | 188
46 | COCCCNCc1noc([C@H](CCCC2CCCCC2)CC(=O)NO)n1 | 60
47 | COc1cc(COc2nc(-c3ccccc3)ncc2C=O)ccc1OCc1nc(-c2ccco2)oc1C | 143 to 144
48 | Clc1ccc(Oc2ccc(N3CCNCC3)nc2)cc1 | 98 to 100
49 | CN1C(=O)C(Br)=C(c2c[nH]c3c(OC(c4ccccc4)c4ccccc4)cccc23)C1=O | 205
50 | Cc1cc(C(C)(O)c2scnc2C)c(C)o1 (stereo not drawn) | 100 to 102
51 | CCCn1c(=O)n2c(=O)[nH]nc2c2[nH]cnc21 | > 290
52 | CCNC(=O)c1ccc(C#CCc2ccc3c(c2)C(C)(C)CCC3(C)C)cc1 | 128 to 129

Row | SMILES | melting point [°C]
53 | CC(C(=O)O)c1ccc(CC2CCCC2=O)cc1 (stereo not drawn) | 108 to 111
54 | CN1C(=O)[C@@H](N)[C@@H]1c1ccccc1 (relative stereo) | 51.5
55 | Cc1nc(-n2cnn(CC3CC3)c2=O)sc1C(=O)NCc1cc[nH]n1 | 167 to 168
56 | COC(=O)c1c(N)n(C)c2ccccc12 | 192 to 196
57 | Cc1c(CC(=O)O)oc2ccc(-c3ccccc3)cc12 | 173 to 174
58 | NC(=O)N(c1ccc(C(F)(F)F)cc1)c1nc(Cl)cc(Cl)n1 | 99 to 101
59 | Cc1[nH]cnc1CC1CCc2c(C)c3ccccc3n2C1=O (stereo not drawn) | 226 to 229
60 | CSN(C=C(C#N)C#N)c1cccc(C(C)=O)c1 | 165 to 166
61 | Cc1c(C(=O)Nc2ccc(N3CCN(CCO)CC3)c(C#N)c2)cnn1-c1ccc(F)c(F)c1 | 164 to 165
62 | CCNC(=O)[C@H](C)C[C@H](O)[C@H](CC1CCCCC1)NC(=O)OC(C)(C)C | 126 to 127
63 | FC(F)(F)c1ccc2nc3c(nc2c1)OCC1CCCCN31 (stereo not drawn) | 154 to 156
64 | C[C@@H](C(N)=O)c1ccc(NS(=O)(=O)c2cccs2)cc1 | 58 to 60
65 | Cc1cccc(NC(=O)NCC(=O)N2[C@@H](c3ccccc3F)SC[C@H]2C(=O)OC(C)(C)C)c1 | 107
66 | NC(=Nc1ccc(-n2cccc2)c(CNC(=O)CCCCC2CCSS2)c1)c1cccs1 (stereo not drawn) | 156 to 158
67 | CCc1cc(OCc2ccccc2)ccc1C(=O)NNC(=O)Cc1cccc(O)c1 | 190 to 191
68 | Cc1cccc(-c2nc3ccc(Cl)cn3c2-c2ccnc(-c3ccc(CN4CCCC4)cc3)c2)n1 | 134
69 | COC(=O)c1cnccc1NC(=O)C(C)CSC(C)=O (stereo not drawn) | 55 to 57
70 | CCOc1cc2ncc(C#N)c(Nc3ccc(F)c(Cl)c3)c2cc1NC(=O)C=CCN(C)C | 196 to 198
71 | Cc1nn(C)c2c1Nc1ccccc1NC2=O | 189 to 190
72 | C(=Cc1c[nH]cn1)CC(c1ccccc1)c1ccccc1 | > 240
73 | CSC(Nc1cc(C(F)(F)F)cc(C(F)(F)F)c1)=C(C#N)S(C)(=O)=O | 129 to 131
74 | CC1(C2CCC3C4CCC5CC(CC(=O)O)CCC5(C)C4CCC32C)OCCO1 (stereo not drawn) | 164 to 167
75 | CCCC(SCC(=O)O)c1ccc2c(c1)OCO2 (stereo not drawn) | 59 to 61
76 | Cc1c(Br)c2c(c(C)c1NC(=O)CC(C)(C)C)CC(C)(C)O2 | 205 to 206
77 | Cc1ccc2c(c1NC(=O)NCC1(c3ccccc3)CCCC1)OC(C)(C)C2 | 186
78 | CC(C)C=C(C=NO)c1ccccc1 | 107 to 110

Row | SMILES | melting point [°C]
79 | CCC(=S)Nc1c(SC(F)(F)F)c(C#N)nn1-c1c(Cl)cc(C(F)(F)F)cc1SC | 153 to 155
80 | CN(C)c1nc2cc(NC(=O)c3c(C(=O)N4CCC4)cnn3C)ccn2n1 | 240 to 241
81 | COc1ccc2c(c1)CCC(C(=O)O)O2 (stereo not drawn) | 131 to 135
82 | O=S(=O)(N[C@H]1CC[C@H](CCN2CCC(c3cccc4c3CCO4)CC2)CC1)c1ccc(F)cc1 | 134
83 | Cc1c(C=O)c2cc(Cl)ccc2n1-c1ccc(O)cc1 | > 240
84 | CC(C)(C)OC(=O)Nc1cc(N2CCOCC2)c(C#Cc2ccccc2)cc1N | 174 to 176
85 | O=c1[nH]c2c3ccccc3ccc2n(CC2CC2)c1=O | 292
86 | COc1ccc(NC(=S)Nc2ccc(NNC=O)c(OC)c2)cc1 | 160 to 162
87 | O=C(O)CCc1cnoc1-c1ccc(Br)cc1 | 164 to 165
88 | Nc1nc(Cl)nc(N(CCC(=O)O)Cc2ccc(Cl)c(Cl)c2)n1 | 105 to 110
89 | O=C1CC(O)c2ccc(F)cc21 (stereo not drawn) | 73 to 76
90 | O=C1c2cccc([N+](=O)[O-])c2C(=O)N1c1cccc2ccc(O)cc12 | 136 to 137
91 | COc1cc(Br)nc2[nH]cc(C(C)=O)c12 | > 210
92 | OCCC#Cc1cnc2ccccc2c1 | 95.7 to 96.7
93 | CCOC(=O)C(NC(=O)CS(C)=O)C(=O)OCC (stereo not drawn) | 85 to 87
94 | CCCOc1ccc(S(C)(=O)=O)cc1C(=O)Nc1c(C(N)=O)nn(CC2CC2)c1CC | 185 to 186
95 | CCCCOC(=O)c1ccc(N(C)C=Nc2ccc(C(=O)OCC)cc2)cc1 | 83 to 85
96 | CC(C)N(C=Nc1ncc(I)c(Cl)n1)C(C)C | 97 to 100
97 | Cc1cc(Cn2c(-c3ccccc3)nc(Cl)c2C=O)ccc1OCc1ccccc1 | 135 to 136
98 | CCCCCCCCCCC(O)C(O)CCC(O)C1CCC(=O)O1 (stereo not drawn) | 99 to 100
99 | CCCCOc1nn(-c2ccc(C(F)(F)F)cn2)cc1CCCOc1ccc(CCC(=O)O)c(OCC)c1 | 102 to 103
100 | CC(C)(C)OC(=O)NC1Cc2ccccc2N(c2ccccc2)C1 (stereo not drawn) | 139 to 141
101 | Clc1cccc(-c2nnnn2Cc2cscn2)c1Cl | 153 to 154
102 | COc1cc(C(C)C)ccc1C1(NC(=O)c2ccccc2)C(=O)c2ccccc2C1=O | 106 to 108
103 | COc1cc(Nc2cc(C(=O)NN)ccn2)cc(C(F)(F)F)c1 | 229 to 230

Source: a melting point compilation (Tetko et al.; mined from patent text by program, amines drawn as free bases though some values may be those of a salt)
